Molecules are shown by their SMILES.

The test addresses T1, human CCR6 (Homo sapiens, UniProt P51684).
T1 sequence (P51684 1-374): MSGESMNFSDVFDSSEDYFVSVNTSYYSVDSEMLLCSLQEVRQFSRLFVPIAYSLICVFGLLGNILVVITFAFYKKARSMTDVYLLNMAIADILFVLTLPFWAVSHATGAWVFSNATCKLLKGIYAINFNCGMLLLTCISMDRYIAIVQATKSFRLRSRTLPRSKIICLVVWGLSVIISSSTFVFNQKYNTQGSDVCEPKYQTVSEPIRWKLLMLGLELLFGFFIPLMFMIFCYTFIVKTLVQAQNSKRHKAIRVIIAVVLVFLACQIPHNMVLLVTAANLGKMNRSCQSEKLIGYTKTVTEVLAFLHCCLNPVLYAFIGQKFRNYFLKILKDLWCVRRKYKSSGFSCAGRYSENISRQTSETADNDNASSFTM
The experiment in a line: Human CCR6-CRE reporter assay. On the set-up: The second construct contained the open reading frame of human CCR6 in the pUNO1 backbone; host or cells: 293FT cells. Type of test: cell-based. As to conditions: relative -Log IC50; 293FT cells transfected with human CCR6 and CRE-luciferase reporter; 6 μM Forskolin, 6 nM CCL20; 5 h. How it is done:
Human CCR6-CRE Reporter Assay
293FT cells were transfected with 2 constructs using TransIT-293 (Mirus). The first construct (pGL4.29, Promega) expressed the luciferase reporter gene luc2P in response to the binding of cAMP-induced CREB to the CREelement in its promoter. The second construct contained the open reading frame of human CCR6 in the pUNO1 backbone under the control of an enhanced CMV promoter (InVivoGen). 48 h after transfection, cells were harvested and diluted to 750,000 cells/ml in culture medium (DMEM, 10% FBS, 1× pen/strep (Gibco 15140)). Compounds were 2.5-fold serially diluted in DMSO. Further dilutions were made in assay medium (DMEM, 10% FBS, 1× pen/strep, 6 μM Forskolin, 6 nM CCL20). 4 μl of the compound solution was added to a white MW384 plate, followed by 20 μl of the cell suspension. Final DMSO concentration in the assay was 0.1%. The MW384 plate was placed in an incubator at 37° C., 5% CO2 for 5 h. Luciferase activity was determined by addition of 24 μl of a 2.5× diluted BriteLite luciferase solution (Perkin Elmer), followed by luminescence measurement using a VICTOR Plate reader (Perkin Elmer). […] The relative −Log IC50 was determined with GraphPad Prism 9 using a four-parameter dose-response model.
Broadly, the IC50 is the point on the concentration scale where inhibition reaches its midpoint. Turning to `Cc1n[nH]c2ccc(-c3ccc(S(=O)(=O)[C@H]4CC[C@@H](Nc5ccc(S(F)(F)(F)(F)F)cc5)CC4)cc3)cc12` [Example 5, 4-(pentafluoro-λ^6-sulfanyl)-N-[cis-4-[4-(3-methyl-2H-indazol-5-yl)benzenesulfonyl]cyclohexyl]aniline], the 50% inhibitory concentration (IC50) was 501 nM. As for `N#Cc1c[nH]c2ccc(-c3ccc(S(=O)(=O)[C@H]4CC[C@@H](Nc5ccc(S(F)(F)(F)(F)F)cc5)CC4)cc3)cc12` [Example 8, 5-(4-{[cis-4-{[4-(pentafluoro-λ^6-sulfanyl)phenyl]Amino}cyclohexyl]sulfonyl}phenyl)-1H-indole-3-carbonitrile], the figure is 1260 nM. As to `N#Cc1cnc2ccc(-c3ccc(S(=O)(=O)[C@H]4CC[C@@H](Nc5ccc(S(F)(F)(F)(F)F)cc5)CC4)cc3)cn12` [Example 17, 6-(4-{[cis-4-{[4-(pentafluoro-λ^6-sulfanyl)phenyl]Amino}cyclohexyl]sulfonyl}phenyl)imidazo[1,2-a]pyridine-3-carbonitrile], 794 nM corresponded to half-maximal inhibition (IC50).

Take `O=S(=O)(c1ccc(-c2ccc3nnc(C4CCCC4)n3c2)cc1)N1CCC(Nc2ccc(S(F)(F)(F)(F)F)cc2)CC1` [Example 31, 1-(4-{3-cyclopentyl-[1,2,4]triazolo[4,3-a]pyridin-6-yl}benzenesulfonyl)-N-[4-(pentafluoro-λ^6-sulfanyl)phenyl]piperidin-4-amine]: the IC50 was 63.1 nM. In the case of `CN(C)C(=O)c1ccc(-c2ccc(S(=O)(=O)[C@H]3CC[C@@H](Nc4ccc(S(F)(F)(F)(F)F)cc4)CC3)cc2)nc1` [Example 45, N,N-dimethyl-6-(4-{[cis-4-{[4-(pentafluoro-λ^6-sulfanyl)phenyl]Amino}cyclohexyl]sulfonyl}phenyl)pyridine-3-carboxamide], the IC50 is 1580 nM. In turn, `CN(C)C(=O)c1ccc(-c2ccc(S(=O)(=O)[C@H]3CC[C@H](Nc4ccc(S(F)(F)(F)(F)F)cc4)CC3)cc2)nc1` [Example 46, N,N-dimethyl-6-(4-{[trans-4-{[4-(pentafluoro-λ^6-sulfanyl)phenyl]Amino}cyclohexyl]sulfonyl}phenyl)pyridine-3-carboxamide] showed an IC50 of 251 nM. As for `O=c1cc(-c2ccc(S(=O)(=O)[C@H]3CC[C@H](Nc4ccc(S(F)(F)(F)(F)F)cc4)CC3)cc2)cc[nH]1` [Example 52, 4-(4-{[trans-4-{[4-(pentafluoro-λ^6-sulfanyl)phenyl]Amino}cyclohexyl]sulfonyl}phenyl)-1,2-dihydropyridin-2-one], the figure is 39.8 nM; as for `O=C1Cc2ccc(-c3ccc(S(=O)(=O)[C@H]4CC[C@H](Nc5ccc(S(F)(F)(F)(F)F)cc5)CC4)cc3)cc2CN1` [Example 53, 7-(4-{[trans-4-{[4-(pentafluoro-λ^6-sulfanyl)phenyl]Amino}cyclohexyl]sulfonyl}phenyl)-1,2,3,4-tetrahydroisoquinolin-3-one], 79.4 nM.

The molecule `O=C1Cc2cc(-c3ccc(S(=O)(=O)[C@H]4CC[C@H](Nc5ccc(S(F)(F)(F)(F)F)cc5)CC4)cc3)ccc2CN1` [Example 54, 6-(4-{[trans-4-{[4-(pentafluoro-λ^6-sulfanyl)phenyl]Amino}cyclohexyl]sulfonyl}phenyl)-1,2,3,4-tetrahydroisoquinolin-3-one] had an IC50 of 50.1 nM. With `O=c1[nH]cnn2cc(-c3ccc(S(=O)(=O)[C@H]4CC[C@H](Nc5ccc(S(F)(F)(F)(F)F)cc5)CC4)cc3)cc12` [Example 55, 6-(4-{[trans-4-{[4-(pentafluoro-λ^6-sulfanyl)phenyl]Amino}cyclohexyl]sulfonyl}phenyl)-3H,4H-pyrrolo[2,1-f][1,2,4]triazin-4-one], inhibition was half-maximal at 31.6 nM (IC50). As for `CP(C)(=O)c1ccc(-c2ccc(S(=O)(=O)[C@H]3CC[C@H](Nc4ccc(S(F)(F)(F)(F)F)cc4)CC3)cc2)cc1` [Example 57, 4-(pentafluoro-λ^6-sulfanyl)-N-[trans-4-{[4′-(dimethylphosphoryl)-[1,1′-biphenyl]-4-yl]sulfonyl}cyclohexyl]aniline], the figure is 200 nM; as for `NC(=O)c1ccc(-c2ccc(S(=O)(=O)[C@H]3CC[C@H](Nc4ccc(S(F)(F)(F)(F)F)cc4)CC3)cc2)nn1` [Example 62, 6-(4-{[trans-4-{[4-(pentafluoro-λ^6-sulfanyl)phenyl]Amino}cyclohexyl]sulfonyl}phenyl)pyridazine-3-carboxamide], 398 nM. As for `Cc1cc(-c2ccc(S(=O)(=O)[C@H]3CC[C@H](Nc4ccc(S(F)(F)(F)(F)F)cc4)CC3)cc2)cn2c(C(C)C)cnc12` [Example 64, 4-(pentafluoro-λ^6-sulfanyl)-N-[trans-4-{4-[8-methyl-3-(propan-2-yl)imidazo[1,2-a]pyridin-6-yl]benzenesulfonyl}cyclohexyl]aniline], the figure is 50.1 nM; as for `O=C1Nc2ccc(-c3ccc(S(=O)(=O)[C@H]4CC[C@H](Nc5ccc(S(F)(F)(F)(F)F)cc5)CC4)cc3)cc2C12CC2` [Example 65, 5′-(4-{[trans-4-{[4-(pentafluoro-λ^6-sulfanyl)phenyl]amino}cyclohexyl]sulfonyl}phenyl)-1′,2′-dihydrospiro[cyclopropane-1,3′-indol]-2′-one], 39.8 nM. `Cc1cnc2ccc(-c3ccc(S(=O)(=O)N4CCC(Nc5ccc(S(F)(F)(F)(F)F)cc5)CC4)c(F)c3)cn12` [Example 67, 1-(2-fluoro-4-{3-methylimidazo[1,2-a]pyridin-6-yl}benzenesulfonyl)-N-[4-(pentafluoro-λ^6-sulfanyl)phenyl]piperidin-4-amine] gave an IC50 of 631 nM. As for `Cc1cnc2ccc(-c3ccc(S(=O)(=O)N4CCC(Nc5ccc(S(F)(F)(F)(F)F)cc5)CC4)cc3F)cn12` [Example 68, 1-(3-fluoro-4-{3-methylimidazo[1,2-a]pyridin-6-yl}benzenesulfonyl)-N-[4-(pentafluoro-λ^6-sulfanyl)phenyl]piperidin-4-amine], the figure is 1000 nM; as for `Cc1cnc2ccc(-c3ccc(S(=O)(=O)N4CCC(Nc5ccc(S(F)(F)(F)(F)F)cc5)CC4)nc3)cn12` [Example 70, 1-[(5-{3-methylimidazo[1,2-a]pyridin-6-yl}pyridin-2-yl)sulfonyl]-N-[4-(pentafluoro-λ^6-sulfanyl)phenyl]piperidin-4-amine], 1260 nM; as for `N#Cc1cnc2ccc(-c3ccc(S(=O)(=O)N4CCC(Nc5ccc(S(F)(F)(F)(F)F)cc5)CC4)cc3F)cn12` [Example 71, 6-{2-fluoro-4-[(4-{[4-(pentafluoro-λ^6-sulfanyl)phenyl]Amino}piperidin-1-yl)sulfonyl]phenyl}imidazo[1,2-a]pyridine-3-carbonitrile], 1000 nM. For `O=S(=O)(c1ccc(-c2ccc3nccn3c2)c(F)c1)N1CCC(Nc2ccc(S(F)(F)(F)(F)F)cc2)CC1` [Example 72, 1-(3-fluoro-4-{imidazo[1,2-a]pyridin-6-yl}benzenesulfonyl)-N-[4-(pentafluoro-λ^6-sulfanyl)phenyl]piperidin-4-amine], the IC50 is 1580 nM.

In turn, `O=S(=O)(c1ccc(-c2ccc3nccn3c2)cn1)N1CCC(Nc2ccc(S(F)(F)(F)(F)F)cc2)CC1` [Example 75, 1-[(5-{imidazo[1,2-a]pyridin-6-yl}pyridin-2-yl)sulfonyl]-N-[4-(pentafluoro-λ^6-sulfanyl)phenyl]piperidin-4-amine] showed an IC50 of 1000 nM.

Source of the values: patent US20260070902A1, “SULFONYL DERIVATIVES AS CCR6 INHIBITORS” (Hoffmann-La Roche Inc., priority 2022, published 2026).
